Assay results from patent publication US9981916B2 (Genentech, Inc., priority 2013, dated 2018).
pIC50: −log10 of the molar value.

biological target: T1, RORc ligand binding domain (Homo sapiens, UniProt P51449); assay: In vitro RORc ligand binding assay (25-[3H]hydroxycholesterol displacement, filter binding); conditions: 6 nM 25-[3H]hydroxycholesterol, 0.6 ug/mL RORc receptor, 3 h at 25° C.
T1 construct: host or cells: E. coli
T1 sequence (P51449 269-508 limits assumed): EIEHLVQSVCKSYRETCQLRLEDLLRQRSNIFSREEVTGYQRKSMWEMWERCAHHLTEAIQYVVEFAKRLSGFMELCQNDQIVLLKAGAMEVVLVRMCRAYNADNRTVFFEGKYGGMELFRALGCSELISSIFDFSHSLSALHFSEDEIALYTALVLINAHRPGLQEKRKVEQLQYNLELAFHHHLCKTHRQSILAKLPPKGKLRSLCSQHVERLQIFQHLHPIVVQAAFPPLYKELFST
Description: Example 17: In Vitro RORc Ligand Binding Assay
This assay was used to determine a compound's potency in inhibiting activity of RORc by determining, Kiapp, IC50, or percent inhibition values.
On day of the assay, 100 uL of 0.05% CHAPS (in deionized H2O) was added to all wells of the GFB Unifilter plate and allowed soak for 1 h. A wash buffer of 50 mM HEPES (pH 7.4), 150 mM NaCl, and 5 mM MgCl2 was prepared to wash the filter plate. To prepare an assay buffer, BSA was added to the wash buffer to reach 0.01% and DTT was added to reach 1 mM.
For IC50 mode, 10 mM compound stocks were serially diluted in DMSO with DMSO to give 20× required final concentration in DMSO (15 uL compound+30 uL DMSO). The 20× compound stocks were diluted in DMSO with Assay Buffer 4-fold to reach 5× the final test concentration in 25% DMSO (10 uL compound+30 uL Assay Buffer). Solutions were mixed by aspiration several times with a pipette set on 50 uL volume. For the assay, 10 uL of 5× compound stock solutions in 25% DMSO were added to the assay plate in duplicate.
For two point screening, 10 mM stock compound solutions were diluted in DMSO to obtain 200 uM (20× the high test concentration) and then diluted 10-fold further to reach 20 uM (20× the low test concentration). The 20× stocks were diluted 4-fold with Assay Buffer (10 uL compound+30 uL Assay Buffer) to reach 5× the test concentrations (50 uM and 5 uM) and 10 uL were added to two assay plates for the duplicate wells. With each concentration tested on 2 plates, each set of 80 compounds used 4 assay plates (1 uM and 10 uM, with n=2).
25-hydroxycholesterol (1 uM) was used to determine the level of NSB signal is prepared in DMSO as for compounds above, then diluted in Assay Buffer to give a final concentration of 5 uM. For 25-hydroxycholesterol in 25% DMSO/75% Assay Buffer; 10 uL per well was used for NSB samples. Wells for Total Binding and No Receptor sample determination contained 10 uL of 25% DMSO/75% Assay Buffer per well.
25-[^3H]hydroxycholesterol was diluted in Assay Buffer to obtain 15 nM and vortex to mix. Add 20 uL to all wells to reach 6 nM final concentration in the assay.
Stock receptor solution was diluted in assay buffer to obtain 1.5 ug/mL in Assay Buffer. 20 uL was added to all wells. For No Receptor samples, 20 uL Assay Buffer was substituted for receptor solution.
Assay plates were 96-well polypropylene V-bottom plates. 10 uL of 5× compound in 25% DMSO/75% Assay Buffer was added to Test wells. 10 uL of 25% DMSO/75% Assay Buffer was added to Total Binding or No Receptor wells. 10 uL of 5 uM 25-hydroxycholesterol in 25% DMSO/75% Assay Buffer was added to NSB wells. 20 uL of 15 nM 25-[^3H]hydroxycholesterol prepared in Assay Buffer was added to all wells. 20 uL of 1.5 ug/mL RORc receptor was added to wells (or […] Assay Buffer to No R wells). Following addition to the wells, the plates were incubated 3 h at 25° C.
Using a Packard Filtermate Harvester, the filter plate were washed 4 times following transfer of the incubated samples. Plates were dry-filtered completely (2 h at 50° C. or overnight at room temperature). 50 uL Microscint 0 was added to all wells and read on Topcount protocol Inverted.
Final concentrations were as follows: 50 mM HEPES buffer (pH 7.4); 150 mM NaCl; 1 mM DTT; 5 mM MgCl2; 0.01% BSA; 5% DMSO; 0.6 ug/mL RORc receptor; 6 nM 25-[^3H]hydroxycholesterol. For NSB wells, 1 uM 25-hydroxycholesterol was also present.

Structure (SMILES) | pIC50
CCN(C[C@@]12CC[C@@H](c3cc(-c4c(F)cccc4F)nnc31)C2(C)C)c1nccc(=O)[nH]1 [Example 302, 2-((((5R,8S)-3-(2,6-difluorophenyl)-9,9-dimethyl-5,6,7,8-tetrahydro-5,8-methanocinnolin-8-yl)methyl)(ethyl)amino) pyrimidin-4(3H)-one] | 6.97
Cc1nc(C[C@]23CC[C@H](c4cc(-c5ccccc5F)nnc42)C3(C)C)no1 [Example 39, (5S,8S)-3-(2-fluorophenyl)-9,9-dimethyl-8-[(5-methyl-1,2,4-oxadiazol-3-yl)methyl]-5,6,7,8-tetrahydro-5,8-methanocinnoline] | 5.76
CC1(C)[C@@H]2CC[C@@]1(C(=O)N1C[C@@H]3C[C@H]1CN3S(C)(=O)=O)c1nnc(-c3c(F)cccc3F)cc12 [Example 241, ((5S,8S)-3-(2,6-difluorophenyl)-9,9-dimethyl-5,6,7,8-tetrahydro-5,8-methanocinnolin-8-yl)((1S,4S)-5-(methylsulfonyl)-2,5-diazabicyclo[2.2.1]heptan-2-yl)methanone] | 6.49
CC1(C)[C@H]2CC[C@]1(c1nnco1)c1nnc(-c3c(F)cccc3F)cc12 [Example 101] | 6.72
CC(C)C(=O)N[C@@]12CC[C@@H](c3cc(-c4ccccc4F)nnc31)C2(C)C [Example 87, N-[(5R,8R)-3-(2-fluorophenyl)-9,9-dimethyl-6,7-dihydro-5,8-methanocinnolin-8(5H)-yl]-2-methylpropanamide] | 5.28
CCOC[C@]12CC[C@H](c3cc(-c4ccccc4F)nnc31)C2(C)C [Example 25, (5S,8S)-8-(ethoxymethyl)-3-(2-fluorophenyl)-9,9-dimethyl-5,6,7,8-tetrahydro-5,8-methanocinnoline] | 6.86
Cc1cc([C@@]23CC[C@@H](c4cc(-c5c(F)cccc5F)nnc42)C3(C)C)[nH]n1 [Example 191, (5R,8S)-3-(2,6-difluorophenyl)-9,9-dimethyl-8-(3-methyl-1H-pyrazol-5-yl)-5,6,7,8-tetrahydro-5,8-methanocinnoline] | 6.91
Cc1c[nH]nc1C1CN(C(=O)[C@@]23CC[C@@H](c4cc(-c5ccccc5F)nnc42)C3(C)C)C1 [Example 179, ((5R,8R)-3-(2-fluorophenyl)-9,9-dimethyl-5,6,7,8-tetrahydro-5,8-methanocinnolin-8-yl)(3-(4-methyl-1H-pyrazol-3-yl)azetidin-1-yl)methanone] | 5.55

Other lines, results leading:

pIC50 | Structure (SMILES)
6.91 | CON(C)C(=O)[C@]12CC[C@H](c3cc(-c4c(F)cccc4F)nnc31)C2(C)C [Example 55, (5S,8S)-3-(2,6-difluorophenyl)-N-methoxy-N,9,9-trimethyl-6,7-dihydro-5,8-methanocinnoline-8(5H)-carboxamide]
6.58 | COc1nnc([C@@]23CC[C@@H](c4cc(-c5c(F)cccc5F)nnc42)C3(C)C)o1 [Example 105, (5R,8R)-3-(2,6-difluorophenyl)-8-(5-methoxy-1,3,4-oxadiazol-2-yl)-9,9-dimethyl-5,6,7,8-tetrahydro-5,8-methanocinnoline]
7.27 | COCCN(C[C@@]12CC[C@@H](c3cc(-c4c(F)cccc4F)nnc31)C2(C)C)c1nnc(C)o1 [Example 149, N-(((5R,8S)-3-(2,6-difluorophenyl)-9,9-dimethyl-5,6,7,8-tetrahydro-5,8-methanocinnolin-8-yl)methyl)-N-(2-methoxyethyl)-5-methyl-1,3,4-oxadiazol-2-amine]
5.67 | CC1(C)[C@H]2C[C@@H](F)[C@]1(C)c1nnc(-c3ccccc3F)cc12 [Example 31, (5R,7R,8S)-7-fluoro-3-(2-fluorophenyl)-8,9,9-trimethyl-5,6,7,8-tetrahydro-5,8-methanocinnoline]
6.75 | COCC(=O)N(CCC#N)C[C@@]12CC[C@@H](c3cc(-c4c(F)cccc4F)nnc31)C2(C)C [Example 311, N-(2-cyanoethyl)-N-(((5R,8S)-3-(2,6-difluorophenyl)-9,9-dimethyl-5,6,7,8-tetrahydro-5,8-methanocinnolin-8-yl)methyl)-2-methoxyacetamide]
